Values after ≈ are worked out from the molar mass of the structure shown. Active and inactive are the calls of the source. No cut-off for these calls is given here.
What was measured:
[1] = tested on: Pseudomonas aeruginosa; assay: Antibacterial activity against Pseudomonas aeruginosa PAO1 harboring gatA::ISphoA/haha mutation by Etest; assay type: functional
[2] = tested on: Pseudomonas aeruginosa; assay: Antibacterial activity against Pseudomonas aeruginosa PAO1 harboring phoU::ISphoA/haha mutation by Etest; assay type: functional
[3] = tested on: Pseudomonas aeruginosa; assay: Antibacterial activity against Pseudomonas aeruginosa PAO1 harboring gabD::ISphoA/haha mutation by Etest; assay type: functional
[4] = tested on: Pseudomonas aeruginosa; assay: Antibacterial activity against Pseudomonas aeruginosa PAO1 harboring mmsA::ISphoA/haha mutation by Etest; assay type: functional
[5] = tested on: Pseudomonas aeruginosa; assay: Antibacterial activity against Pseudomonas aeruginosa PAO1 harboring yaaA::ISphoA/haha mutation by Etest; assay type: functional
[6] = tested on: Pseudomonas aeruginosa; assay: Antibacterial activity against Pseudomonas aeruginosa PAO1 harboring gabD::ISlacZ/haha mutation by Etest; assay type: functional
[7] = tested on: Pseudomonas aeruginosa; assay: Antibacterial activity against wild type Pseudomonas aeruginosa PAO1 assessed as viable bacterial count by Etest; assay type: functional
[8] = tested on: Pseudomonas aeruginosa; assay: Antibacterial activity against Pseudomonas aeruginosa PAO1 horboring mmsA mutant gene assessed as viable bacterial count at 8 times MIC after 48 hrs by Etest; assay type: functional, organism-based
[9] = tested on: Pseudomonas aeruginosa; assay: Antibacterial activity against Pseudomonas aeruginosa PAO1 horboring yaaA mutant gene assessed as viable bacterial count at 4 times MIC after 24 hrs by Etest; assay type: functional, organism-based
[10] = tested on: Pseudomonas aeruginosa; assay: Antibacterial activity against Pseudomonas aeruginosa PAO1 horboring yaaA mutant gene assessed as viable bacterial count at 8 times MIC after 48 hrs by Etest; assay type: functional, organism-based
[11] = tested on: Pseudomonas aeruginosa; assay: Antibacterial activity against wild type Pseudomonas aeruginosa PAK assessed as viable bacterial count at 0.5 times MIC after 48 hrs by Etest; assay type: functional, organism-based
[12] = tested on: Pseudomonas aeruginosa; assay: Antibacterial activity against Pseudomonas aeruginosa PAO1 horboring gabD mutant gene assessed as viable bacterial count at 4 times MIC after 24 hrs by Etest; assay type: functional, organism-based
[13] = tested on: Pseudomonas aeruginosa; assay: Antibacterial activity against Pseudomonas aeruginosa PAO1 horboring gabD mutant gene assessed as viable bacterial count at 8 times MIC after 48 hrs by Etest; assay type: functional, organism-based
[14] = tested on: Pseudomonas aeruginosa; assay: Antibacterial activity against Pseudomonas aeruginosa PAO1 horboring mmsA mutant gene assessed as viable bacterial count at 4 times MIC after 24 hrs by Etest; assay type: functional, organism-based

Compound: NC[C@H]1O[C@H](O[C@H]2[C@H](O)[C@@H](O[C@H]3O[C@H](CO)[C@@H](O)[C@H](N)[C@H]3O)[C@H](N)C[C@@H]2N)[C@H](N)C[C@@H]1O [TOBRAMYCIN]
- MIC [1]: 2 µg/mL (≈ 4.28 µM)
- MIC [2]: 2 µg/mL (≈ 4.28 µM)
- MIC [3]: 2 µg/mL (≈ 4.28 µM)
- MIC [4]: 1.5 µg/mL (≈ 3.21 µM)
- MIC [5]: 2 µg/mL (≈ 4.28 µM)
- MIC [6]: 2 µg/mL (≈ 4.28 µM)
- MIC [7]: 2 µg/mL (≈ 4.28 µM)

Compound: C[C@H]1COc2c(N3CCN(C)CC3)c(F)cc3c(=O)c(C(=O)O)cn1c23.C[C@H]1COc2c(N3CCN(C)CC3)c(F)cc3c(=O)c(C(=O)O)cn1c23.O [LEVOFLOXACIN]
- MIC [1]: 0.5 µg/mL
- MIC [3]: 0.25 µg/mL
- MIC [4]: 0.25 µg/mL
- MIC [5]: 0.25 µg/mL
- MIC [6]: 0.25 µg/mL

Compound: CC(C)(O/N=C(\C(=O)N[C@@H]1C(=O)N2C(C(=O)[O-])=C(C[n+]3ccccc3)CS[C@H]12)c1csc(N)n1)C(=O)O [CEFTAZIDIME]
- MIC [1]: 1 µg/mL (≈ 1.83 µM)
- MIC [2]: 1.5 µg/mL (≈ 2.74 µM)
- MIC [3]: 1 µg/mL (≈ 1.83 µM)
- MIC [4]: 1 µg/mL (≈ 1.83 µM)
- MIC [5]: 0.75 µg/mL (≈ 1.37 µM)
- MIC [6]: 1 µg/mL (≈ 1.83 µM)
- MIC [7]: 1 µg/mL (≈ 1.83 µM)

Compound: GENTAMICIN
- MIC [1]: 3 µg/mL
- MIC [2]: 3 µg/mL
- MIC [3]: 3 µg/mL
- MIC [4]: 2 µg/mL
- MIC [5]: 3 µg/mL
- MIC [6]: 3 µg/mL
- MIC [7]: 2 µg/mL

Compound: O=C(O)c1cn(C2CC2)c2cc(N3CCNCC3)c(F)cc2c1=O [CIPROFLOXACIN]
- Activity [8]: Active
- Activity [9]: Active
- Activity [10]: Active
- Activity [11]: inactive
- MIC [1]: 0.19 µg/mL (≈ 0.573 µM)
- Activity [12]: inactive
- Activity [13]: Active
- Activity [14]: inactive

Compound: C[C@@H](O)[C@H]1C(=O)N2C(C(=O)O)=C(SCCNC=N)C[C@H]12 [IMIPENEM ANHYDROUS]
- MIC [1]: 4 µg/mL (≈ 13.4 µM)
- MIC [2]: 4 µg/mL (≈ 13.4 µM)
- MIC [3]: 1.5 µg/mL (≈ 5.01 µM)
- MIC [4]: 1 µg/mL (≈ 3.34 µM)
- MIC [5]: 2 µg/mL (≈ 6.68 µM)
- MIC [6]: 1.5 µg/mL (≈ 5.01 µM)
- MIC [7]: 4 µg/mL (≈ 13.4 µM)
